Legend:
[1] = Solubility of 2% solutions (calculated as free acid) in pharmaceutically acceptable hydrophilic solvents; format: physicochemical
Description: The following table presents the solubility of mupirocin calcium amorphous, compared to the solubility of the crystalline form, in various pharmaceutically acceptable hydrophilic solvents. We prepared 2% solutions (calculated as free acid), similar to the commercially available products.

[2] = Stability of 2% solution on heating (Δ % impurities); format: physicochemical
Description: The stability of Mupirocin Calcium amorphous in various acceptable pharmaceutical solvents was tested by heating a 2% solution to 80° C. for 24 hours or by heating it to 40° for 1 month. Bactroban cream was used as a reference.

[3] = from U.S Pat. No. 4,916,155; cited from earlier work
[4] = 2% solution (calculated as free acid) in Glycerine
[5] = 2% solution (calculated as free acid) in Hexylene glycol
[6] = 2% solution in Propylene Glycol

Solubility (After heating for 30 min. at 70° C.) [1, 4] | Solubility (at room temperature) [1, 4] | Solubility (at room temperature) [1, 5] | Δ % impurities (after heating for 1 month at 40° C.) ([2]; 2% solution in Glycerine) | Δ % impurities (after heating for 24 h at 80° C.) ([2]; 2% solution in Glycerine) | Δ % impurities (after heating for 1 month at 40° C.) ([2]; 2% solution in Hexylene Glycol) | Δ % impurities (after heating for 24 h at 80° C.) ([2]; 2% solution in Hexylene Glycol) | Δ % impurities (after heating for 1 month at 40° C.) [2, 6] | Δ % impurities (after heating for 24 h at 80° C.) [2, 6] | Δ % impurities (after heating for 1 month at 40° C.) ([2]; 2% solution in Water) | Δ % impurities (after heating for 24 h at 80° C.) ([2]; 2% solution in Water) | Stability of the solution ([2]; solution in hexylene glycol) | Solubility (After heating for 30 min. at 70° C.) ([1]; 2% solution (calculated as free acid) in Glycerine, calcium dihydrate) | Solubility (After heating for 30 min. at 70° C.) [1, 5] | Solubility (at room temperature) ([1]; 2% solution (calculated as free acid) in Hexylene glycol, calcium dihydrate) | Solubility (at room temperature) ([1]; 2% solution (calculated as free acid) in Propylene glycol, calcium dihydrate) | Solubility (After heating for 30 min. at 70° C.) ([1]; 2% solution (calculated as free acid) in Water) | Solubility (at room temperature) ([1]; 2% solution (calculated as free acid) in Water, calcium dihydrate) | Structure (SMILES) | Solubility in hydrophilic solvents compared with the crystalline form ([1]; hydrophilic solvents) | Solubility in water [3]
Soluble | Not soluble | Soluble | 29.2% | 29.4% | 1.5% | 2% | 7.5% | 8.7% | 36.7% | 36.4% | good stability |  |  |  |  |  |  | C/C(=C\C(=O)OCCCCCCCCC(=O)[O-])C[C@@H]1OC[C@H](C[C@@H]2O[C@H]2[C@@H](C)[C@H](C)O)[C@@H](O)[C@H]1O.C/C(=C\C(=O)OCCCCCCCCC(=O)[O-])C[C@@H]1OC[C@H](C[C@@H]2O[C@H]2[C@@H](C)[C@H](C)O)[C@@H](O)[C@H]1O.O.O.[Ca+2] [Mupirocin Ca amorphous, amorphous calcium mupirocin] | much more soluble in hydrophilic solvents | 
 |  |  |  |  |  |  |  |  |  |  |  | Partially soluble | Not soluble | Not soluble | Soluble | Not soluble | Not soluble | C/C(=C\C(=O)OCCCCCCCCC(=O)[O-])C[C@@H]1OC[C@H](C[C@@H]2O[C@H]2[C@@H](C)[C@H](C)O)[C@@H](O)[C@H]1O.C/C(=C\C(=O)OCCCCCCCCC(=O)[O-])C[C@@H]1OC[C@H](C[C@@H]2O[C@H]2[C@@H](C)[C@H](C)O)[C@@H](O)[C@H]1O.O.O.[Ca+2] [Mupirocin Ca crystalline, crystalline Mupirocin calcium dihydrate] |  | poor solubility in water

— patent publication US6489358B2, “Pharmaceutical compositions containing mupirocin” (Agis Industries (1983) Ltd., priority 2000, dated 2002)
